A short description of the series: method code SF, from DOI: 10.1080/10826079508010421. The note with it: pH 11.0.

Molecules are shown by their SMILES.

Consider `NC1=NCC(COc2ccccc2)O1` (stereo not given), for which the logD (in general, lipophilicity at a set pH, counting ionised and neutral species) worked out at 1.27. Compound `NC1=NCC(COc2ccccc2Cl)O1` (stereo not given) returned a logD of 1.77.

The compound `Cc1ccccc1OCC1CN=C(N)O1` (stereo not given) showed a logD of 1.69. With `NC1=NCC(COc2ccc([N+](=O)[O-])cc2)O1` (stereo not given) the figure was 1.17; with `NC1=NCC(COc2ccc(N3CCOCC3)cc2)O1` (stereo not given), 0.6. Take `Cc1ccc(OCC2CN=C(N)O2)cc1` (stereo not given): the logD amounted to 1.79. On to `CCOc1ccccc1OCC1CN=C(N)O1` (stereo not given), for which the logD amounted to 1.24. In turn, `NC1=NCC(COc2ccc(Cl)cc2)O1` (stereo not given) had a logD of 2. With `COc1ccc(OCC2CN=C(N)O2)cc1` (stereo not given) the figure was 1.26; with `COc1ccccc1OCC1CN=C(N)O1` (stereo not given), 0.85.

These data come from the SangsterLogP compilation.
